Measurements from US12545654B2 (STEMSYNERGY THERAPEUTICS, INC., priority 2020, dated 2026).
pEC50: −log10 of the molar value.

System: N-myc protein
Assay: In-cell immunostaining assay for decrease of N-myc protein level in neuroblastoma cells
Assay type: cell-based
Details: human neuroblastoma cell lines (Kelly, IMR32, SK-N-BE(2)); treated overnight or up to 3 days; N-myc signal normalized over total protein; read-out: Activity (EC50 for decreasing N-myc protein level)
Description: Human neuroblastoma cell lines were obtained from either Millipore Sigma, St. Louis, MO (Kelly cells) or American Type Culture Collection, Manassas, VA (IMR32 and SK-N-BE(2) cells). Cells were cultured in RPMI1640 medium (Corning, New York, NY), supplemented with 10% fetal bovine serum, 100 unit/mL penicillin and 100 μg/mL streptomycin (Corning, New York, NY) at 37 degree Celsius with 5% CO2 in air atmosphere. Cells cultured in flat clear bottom, black 96-well plates (Corning, New York, NY) were treated with different concentrations of a compound of the invention, which was dissolved in the culture media (200 μL/well), overnight or up to 3 days. Cells were fixed with 4% paraformaldehyde (in Phosphate-Buffered Saline or PBS, 100 μL/well) for 30 minutes at room temperature. Cells were briefly washed three times with PBS afterwards, and then treated with PBS containing 0.1% Triton X-100 (100 μL/well) for 30 minutes at room temperature. For […], cells were further treated with PBS containing 0.01% IRDye 700DX NHS Ester (LI-COR Biosciences, Lincoln, NE. 100 μL/well) for 30 minutes at room temperature. Cells were again washed three times with PBS, and then treated with a Tris-buffered saline solution with 0.1% Tween 20 (TBST) and 5% non-fat milk (50 μL/well) for 1 hour at room temperature. Cells were then treated with TBST with 5% non-fat milk (50 μL/well) containing a mouse anti N-Myc antibody (Clone B8.4.B, 1:500 dilution, Santa Cruz Biotechnology, Santa Cruz, CA), or a combination of a rabbit anti-Histone H3 (phospho S10) antibody (Clone EPR17246, 1:10000 dilution, abcam, Cambridge, MA) and a mouse anti-Histone H3 antibody (Clone 1G1, 1:250 dilution, Santa Cruz Biotechnology, Santa Cruz, CA) overnight at 4 degree Celsius in the dark. Cells were washed three times with TBST, and then treated with TBST with 5% non-fat milk (50 μL/well) containing an IRDye 800CW donkey anti-mouse IgG antibody (1:1000 dilution, LI-COR Biosciences, Lincoln, NE) for N-myc staining, or IRDye® 800CW donkey anti-rabbit IgG and IRDye 680RD donkey anti-mouse IgG antibodies (1:1000 dilution, LI-COR Biosciences, Lincoln, NE) for Histone H3 (phospho S10) and Histone H3 staining, incubated for 1 hour at room temperature in the dark. Cells were then washed four times with TBST and the plate was scanned using an Odyssey 9120 Imaging System (LI-COR Biosciences, Lincoln, NE). Signals for N-myc, total protein, Histone H3 (phospho S10), and Histone H3 were obtained from the images using the ImageStudio software (Version 4.0.21, LI-COR Biosciences, Lincoln, NE). Normalized signals for N-myc (over total protein), and Histone H3 (phospho S10) (over Histone H3) were plotted in Prism 7 software (GraphPad Software, San Diego, CA). A four-parameter dose-response curve was fitted using a variable slope model and the EC50 was calculated in Prism 7 software (GraphPad Software, San Diego, CA).

Compound | pEC50
O=C(Nc1cc(C(F)(F)F)ccc1Cl)c1sc(NC(=O)C2(C(=O)Nc3ccc(F)cc3)CC2)nc1C1CC1 [SSTA-0218, N-(5-((2-chloro-5-(trifluoromethyl)phenyl)carbamoyl)-4-cyclopropylthiazol-2-yl)-N-(4-fluorophenyl)cyclopropane-1,1-dicarboxamide] | 6.00 to 6.60
O=C(Nc1ccc(Cl)c(Cl)c1)c1sc(NC(=O)C2(C(=O)Nc3ccc(F)cc3)CC2)nc1C(F)(F)F [SSTA-0194, N-(5-((3,4-dichlorophenyl)carbamoyl)-4-(trifluoromethyl)thiazol-2-yl)-N-(4-fluorophenyl)cyclopropane-1,1-dicarboxamide] | < 6.00
Cc1nc(NC(=O)C2(C(=O)Nc3ccc(F)cc3)CC2)sc1C(=O)Nc1cc(C(F)(F)F)ccc1Cl [SSTA-0152, N-(5-((2-chloro-5-(trifluoromethyl)phenyl)carbamoyl)-4-methylthiazol-2-yl)-N-(4-fluorophenyl)cyclopropane-1,1-dicarboxamide] | 6.00 to 6.60
Cc1nc(NC(=O)C2(C(=O)Nc3ccc(Cl)cc3)CC2)sc1C(=O)Nc1cc(C(F)(F)F)ccc1Cl [SSTA-0169, N-(5-((2-chloro-5-(trifluoromethyl)phenyl)carbamoyl)-4-methylthiazol-2-yl)-N-(4-chlorophenyl)cyclopropane-1,1-dicarboxamide] | < 6.00
O=C(Nc1cc(C(F)(F)F)ccc1Cl)c1sc(NC(=O)C2(C(=O)Nc3ccc(F)cc3)CC2)nc1C(F)(F)F [SSTA-0217, N-(5-((2-chloro-5-(trifluoromethyl)phenyl)carbamoyl)-4-(trifluoromethyl)thiazol-2-yl)-N-(4-fluorophenyl)cyclopropane-1,1-dicarboxamide] | 6.00 to 6.60
O=C(Nc1cccc(C(F)(F)F)c1)c1sc(NC(=O)C2(C(=O)Nc3ccc(F)cc3)CC2)nc1-c1ccccc1 | < 6.00
Cc1nc(NC(=O)C2(C(=O)Nc3ccc(F)cc3)CC2)oc1C(=O)Nc1cccc(C(F)(F)F)c1 [SSTA-0190, N-(4-fluorophenyl)-N-(4-methyl-5-((3-(trifluoromethyl)phenyl)carbamoyl)oxazol-2-yl)cyclopropane-1,1-dicarboxamide] | < 6.00
